Read-outs that look alike come from different tables or passages of the source.

The record followed here is publication PMC8508980, “Design, Synthesis and Anticancer Profile of New 4-(1H-benzo[d]imidazol-1-yl)pyrimidin-2-amine-Linked Sulfonamide Derivatives with V600EBRAF Inhibitory Effect” (International Journal of Molecular Sciences, 2021).

One assay deals with SW-620. The assay can be described thus: NCI 60 cell line screen. It is filed as cell-based. Particulars: Homo sapiens; SW-620, Colon Cancer; read-out: Percent growth. In outline: (§1)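 SRB read-out (515 nm) after 48 h drug exposure, 37 °C, RPMI 1640/5% FBS; five-point dilution series, top conc. 10 µM. Percent growth from Tz, control and treated absorbances; GI50 and TGI derived.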

The next assay deals with ACHN. In words: NCI 60 cell line screen. It counts as cell-based. Particulars: Homo sapiens, Renal Cancer, read-out: Percent growth. In outline: as §1
The next assay relates to HS 578T. In words: NCI 60 cell line screen. It is filed as cell-based. Particulars: Homo sapiens, Breast Cancer, read-out: Percent growth. Summed up:
as §1

The next assay deals with HOP-62. The assay can be described thus: NCI 60 cell line screen. It is filed as cell-based. Particulars: Homo sapiens; HOP-62, Non-Small Cell Lung Cancer; read-out: Percent growth. In outline: (§2)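 Growth inhibition is expressed as percent growth versus time-zero and vehicle controls, from SRB absorbance at 515 nm. Compounds span five concentrations (max 10 µM) for 48 h in RPMI 1640 with 5% serum. TGI corresponds to Ti = Tz.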

The test system of the next assay is SK-MEL-28. In words: NCI 60 cell line screen. It is filed as cell-based. The conditions noted are these: Homo sapiens; SK-MEL-28, Melanoma; read-out: Percent growth. Summed up: as §1
The test system of a further assay is TK-10. In words: NCI 60 cell line screen. It counts as cell-based. Particulars: Homo sapiens; TK-10, Renal Cancer; read-out: Percent growth. Summed up:
as §1

The next assay relates to SNB-19. In words: NCI 60 cell line screen. It counts as cell-based. Particulars: Homo sapiens; SNB-19, CNS-Cancer; read-out: Percent growth. Summed up: as §1
In a further assay the test system is UACC-62. In words: NCI 60 cell line screen. It counts as cell-based. Particulars: Homo sapiens; UACC-62, Melanoma; read-out: Percent growth. Summed up:
as §2

The subject of a further assay is SK-MEL-2. The assay can be described thus: NCI 60 cell line screen. It is filed as cell-based. The conditions noted are these: Homo sapiens; SK-MEL-2, Melanoma; read-out: Percent growth. In outline:
as §1

Another assay has as its system 786-0. In words: NCI 60 cell line screen. It is filed as cell-based. Particulars: Homo sapiens; 786-0, Renal Cancer; read-out: Percent growth. Summed up: as §1
Another assay concerns the target CRAF (Homo sapiens, UniProt P04049). In words: Reaction Biology kinase HotSpot enzyme assay. It is filed as biochemical. Particulars: 1 µM ATP, mean ± S.D. of two separate experiments. The procedure:
Reaction Biology Corp. Kinase HotSpotTM service http://www.reactionbiology.com was used for screening of compounds IC50 Proﬁler Express for IC50 measurement. Assay protocol: In a ﬁnal reaction volume of 25 μL, kinase (5–10 mU) is incubated with 25 mM Tris pH 7.5, 0.02 mM EGTA, 0.66 mg/mL myelin basic protein, 10 mM magnesium acetate and [γ33P-ATP] (speciﬁc activity approx. 500 cpm/pmol, concentration as required). The reaction is initiated by the addition of the Mg-ATP mix. After incubation for 40 min at room temperature, the reaction is stopped by the addition of 5 μL of a 3% phosphoric acid solution. 10 μL of the reaction is then spotted onto a P30 ﬁltermat, and washed three times for 5 min in 75 mM phosphoric acid and once in methanol prior to drying and scintillation counting.

The test system of the next assay is OVCAR-4. In words: NCI 60 cell line screen. It counts as cell-based, human. Particulars: Homo sapiens; OVCAR-4, Ovarian Cancer; read-out: Percent growth. The procedure:
(§3) Anticancer profiling over a panel of 60 cancer cell lines was carried out at the National Cancer Institute (NCI), Bethesda, Maryland, USA, https://dtp.cancer.gov/discovery_development/nci-60/methodology.htm (Last visit 22 September 2021), using the standard procedure (detailed procedure is located in the Supplementary Information page 50 s).
(§4) NCI standard procedure for 60 cell lines assay
(§5) The human tumor cell lines of the cancer screening panel are grown in RPMI 1640 mediu m containing 5% fetal bovine serum and 2 mM L-glutamine. For a typical screening experiment, cells are inoculated into 96 well microtiter plates in 100 μL at plating densities ranging from 5,000 to 40,000 cells/well depending on the doubling time of individual cell lines. After cell inoculation, the microtiter plates are incubated at 37° C, 5 % CO2, 95 % air and 100 % relative humidity for 24 h prior to addition of experimental drugs.
(§6) After 24 h, two plates of each cell line are fixed in situ with TCA, to represent a measurement of the cell population for each cell line at the time of drug addition (Tz). Experimental drugs are solubilized in dimethyl sulfoxide at 400-fold the desired final maximum test concentration (10 µM) and stored frozen prior to use. At the time of drug addition, an aliquot of frozen concentrate is thawed and diluted to twice the desired final maximum test concentration with co mp lete medium containing 50 μg/ml gentamicin. Additional four, 10-fold or ½ log serial dilutions are made to provide a total of five drug concentrations plus control. Aliquots of 100 μl of these different drug dilutions are added to the appropriate microtiter wells already containing 100 μl of medium, resulting in the required final drug concentrations.
(§7) Following drug addition, the plates are incubated for an additional 48 h at 37°C, 5 % CO2, 95 % air, and 100 % relative humidity. For adherent cells, the assay is terminated by the addition of cold TCA. Cells are fixed in situ by the gentle addition of 50 μl of cold 50 % (w/v) TCA (final concentration, 10 % TCA) and incubated for 60 minutes at 4°C. The supernatant is discarded, and the plates are washed five times with tap water and air dried. Sulforhodamine B (SRB) solution (100 μl) at 0.4 % (w/v) in 1 % acetic acid is added to each well, and plates are incubated for 10 minutes at room temperature. After staining, unbound dye is removed by washing five times with 1 % acetic acid and the plates are air dried. Bound stain is subsequently solubilized with 10 mM trizma base, and the absorbance is read on an automated plate reader at a wavelength of 515 nm. For suspension cells, the methodology is the same except that the assay is terminated by fixing settled cells at the bottom of the wells by g ently adding 50 μl of 80 % TCA (final concentration, 16 % TCA). Using the seven absorbance measurements [time zero, (Tz), control growth, (C), and test growth in the presence of drug at the five concentration levels (Ti)], the percentage growth is calculated at each of the drug concentrations levels. Percentage growth inhibition is calculated as:
(§8) [(Ti-Tz)/(C-Tz)] x 100 for concentrations for which Ti>/=Tz
(§9) [(Ti-Tz)/Tz] x 100 for concentrations for which Ti<Tz.
(§10) Three dose response parameters are calculated for each experimental agent. Growth inhibition of […]
(§11) resulting in a 50% reduction in the net protein increase (as measured by SRB staining) in control cells during the drug incubation. The drug concentration resulting in total growth inhibition […]
(§12) (TGI) is calculated from Ti = Tz.

Another assay relates to SK-MEL-5. The assay can be described thus: NCI 60 cell line screen. It is filed as cell-based, human. The conditions noted are these: for activity at 10 µM: Homo sapiens, SK-MEL-5, Melanoma, read-out: Percent growth; for percent inhibition: SK-MEL-5, NCI-60 heat map analysis. As to the method: as §3, §4, §5, §6, §7, §8, §9, §10, §11, §12
The test system of a further assay is RPMI-8226. In words: NCI 60 cell line screen. It counts as cell-based, human. The conditions noted are these: Homo sapiens; RPMI-8226, Leukemia; read-out: Percent growth. The procedure: as §3, §4, §5, §6, §7, §8, §9, §10, §11, §12
Another assay has as its system NCI-H522. In words: NCI 60 cell line screen. It is filed as cell-based, human. The conditions noted are these: Homo sapiens; NCI-H522, Non-Small Cell Lung Cancer; read-out: Percent growth. The procedure: as §3, §4, §5, §6, §7, §8, §9, §10, §11, §12
The next assay has as its system PC-3. In words: NCI 60 cell line screen. It counts as cell-based, human. The conditions noted are these: Homo sapiens; PC-3, Prostate Cancer; read-out: Percent growth. As to the method: as §3, §4, §5, §6, §7, §8, §9, §10, §11, §12
The next assay concerns NCI/ADR-RES. In words: NCI 60 cell line screen. It counts as cell-based, human. The conditions noted are these: Homo sapiens, Ovarian Cancer, read-out: Percent growth. As to the method:
as §3, §4, §5, §6, §7, §8, §9, §10, §11, §12

Sequence of CRAF (P04049 whole entry): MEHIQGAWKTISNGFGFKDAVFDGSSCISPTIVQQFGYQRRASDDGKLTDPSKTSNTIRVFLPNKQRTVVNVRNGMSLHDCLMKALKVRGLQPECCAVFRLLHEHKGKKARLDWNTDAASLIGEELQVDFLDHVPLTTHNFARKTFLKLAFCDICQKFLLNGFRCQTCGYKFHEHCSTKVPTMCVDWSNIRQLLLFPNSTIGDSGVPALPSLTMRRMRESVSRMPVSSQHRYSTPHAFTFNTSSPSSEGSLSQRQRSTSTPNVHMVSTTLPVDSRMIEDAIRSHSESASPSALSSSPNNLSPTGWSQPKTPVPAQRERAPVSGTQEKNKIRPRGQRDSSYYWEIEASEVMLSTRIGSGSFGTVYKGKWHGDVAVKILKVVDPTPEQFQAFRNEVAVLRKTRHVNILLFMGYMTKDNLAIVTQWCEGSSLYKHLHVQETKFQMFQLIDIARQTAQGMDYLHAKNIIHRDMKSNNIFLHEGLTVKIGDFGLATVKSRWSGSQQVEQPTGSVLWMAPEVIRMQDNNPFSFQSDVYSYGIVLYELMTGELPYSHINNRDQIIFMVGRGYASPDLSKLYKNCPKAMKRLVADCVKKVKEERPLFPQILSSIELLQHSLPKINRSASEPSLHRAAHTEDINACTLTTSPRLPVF

For `O=S(=O)(NCCCNc1nccc(-n2cnc3ccccc32)n1)c1ccccc1` [12h, N-(3-((4-(1H-benzo [d]imidazol-1-yl)pyrimidin-2-yl)amino)propyl)benzenesulfonamide], the activity at 10 µM came to 107% in the assay with SW-620; 95.7% in the assay on ACHN; 93.7% with HS 578T; 96.9% in the assay with HOP-62; 105% in the assay with SK-MEL-28; 103% in the assay on TK-10. For the same compound, the activity at 10 µM with SNB-19 is 103%; in the assay with UACC-62 it was 85%; in the assay on SK-MEL-2, 108%; in the assay with 786-0, 98.8%; in the assay on OVCAR-4, 74.5%; in the assay with SK-MEL-5 it was 60.2%. Also, the activity at 10 µM was determined as 74.3% in the assay on RPMI-8226, 82.7% with NCI-H522, 89.2% with PC-3 and 86.2% with NCI/ADR-RES. Moreover, the IC50 (commonly the midpoint of a concentration-inhibition curve) at CRAF (read-out: IC50 CRAF) was determined as 2.14 ± 0.078 µM. In the assay with SK-MEL-5, the percent inhibition was 40%.

As to `O=S(=O)(NCCNc1nccc(-n2cnc3ccccc32)n1)c1ccccc1` [12a, N-(2-((4-(1H-benzo [d]imidazol-1-yl)pyrimidin-2-yl)amino)ethyl)benzenesulfonamide], the activity at 10 µM in the assay with SW-620 was 112%; in the assay with ACHN it was 94.2%; with HS 578T, 93.5%; in the assay with HOP-62, 90.7%; in the assay with SK-MEL-28 it was 108%; with TK-10, 104%. Also, the activity at 10 µM in the assay with SNB-19 was determined as 99.6%; in the assay with UACC-62 it was 78.3%; with SK-MEL-2, 115%; in the assay with 786-0, 103%; with OVCAR-4, 93.4%; with SK-MEL-5 it was 95.8%. Further, the activity at 10 µM turned out to be 84.9% in the assay with RPMI-8226, 93.8% in the assay with NCI-H522, 93.5% with PC-3 and 104% in the assay with NCI/ADR-RES. The IC50 on CRAF (read-out: IC50 CRAF) came to 2.98 ± 0.21 µM.

As to `COc1ccc(S(=O)(=O)NCCCNc2nccc(-n3cnc4ccccc43)n2)cc1` [12m, N-(3-((4-(1H-benzo [d]imidazol-1-yl)pyrimidin-2-yl)amino)propyl)-4-methoxy benzenesulfonamide], the activity at 10 µM in the assay with SW-620 was found to be 104%; with ACHN, 88.2%; in the assay on HS 578T, 84.8%; in the assay with HOP-62, 94.8%; with SK-MEL-28, 106%; in the assay on TK-10, 103%. Besides, the activity at 10 µM with SNB-19 worked out at 100%; in the assay with UACC-62, 76.3%; with SK-MEL-2, 103%; in the assay on 786-0, 95.9%; in the assay with OVCAR-4, 77.4%; in the assay on SK-MEL-5, 70.1%. In addition, the activity at 10 µM in the assay with RPMI-8226 turned out to be 78.6%; in the assay with NCI-H522, 81.1%; with PC-3, 89.7%; in the assay with NCI/ADR-RES it was 105%. Besides, the concentration for half-maximal inhibition (IC50) on CRAF (read-out: IC50 CRAF) amounted to 0.96 ± 0.079 µM.

For `O=S(=O)(NCCCNc1nccc(-n2cnc3ccccc32)n1)c1cccc2ccccc12` [12n, N-(3-((4-(1H-benzo [d]imidazol-1-yl)pyrimidin-2-yl)amino)propyl)naphthalene-1-sulfonamide], the activity at 10 µM with SW-620 amounted to 106%; in the assay on ACHN, 87.1%; in the assay on HS 578T it was 78.3%; with HOP-62, 87.1%; with SK-MEL-28, 103%; in the assay with TK-10, 95.7%. Besides, the activity at 10 µM worked out at 94.2% with SNB-19; 62% in the assay with UACC-62; 97.8% with SK-MEL-2; 91.2% in the assay on 786-0; 66.7% with OVCAR-4; 58.8% with SK-MEL-5. The activity at 10 µM in the assay on RPMI-8226 stood at 69.7%; in the assay on NCI-H522 it was 70%; in the assay on PC-3, 66.7%; with NCI/ADR-RES it was 81.1%. The compound also showed an IC50 on CRAF (IC50 CRAF) of 1.78 ± 0.156 µM. Moreover, the percent inhibition with SK-MEL-5 was 40%.
